Reference: patent US20210267739A1, “DEVICES AND METHODS FOR CONTINUOUS DRUG DELIVERY VIA THE MOUTH” (SynAgile Corporation, priority 2013, published 2021)

Experiments:
[1] = cited from earlier work; for Approximate Pressure, bars at 37° C.: vapor pressure of propellant liquid at 37° C.
[2] = Vapor pressures of propellant liquids; format: physicochemical
Description: For propellant-driven pumps, it is preferred to use propellants whose pressure increases by less than about 80%, 60%, or 40% when the temperature is raised from 37° C. to 55° C. As examples, the pressure of Dupont Dymel HFC-134a (1,1,1,2-tetrafluoroethane) increases from 938 kPa (absolute) at 37° C. to 1,493 kPa (absolute) at 55° C., an increase of 59%. The pressure of Dupont Dymel HFC-227ea/P ([…]) increases from about 700 kPa (absolute) at 37° C. to 1,000 kPa (absolute) at 55° C., an increase of 42%. In order to minimize the effect of temperature fluctuations on the propellants, a number of methods can be employed. In one embodiment, an insulating material can be used to decrease the sensitivity to changes in ambient temperature by insulating the propellant and drug reservoirs with materials of low thermal conductivity. Materials such as closed cell neoprene foams, can be used in this embodiment. In another embodiment, a material with very low thermal conductivity can be utilized, such as a ceramic.

[3] = in vivo; cited from earlier work
mouth of healthy subject [4] = experiment: Salivation and swallowing during intra-oral infusion; format: in vivo, human
Description: The subject recorded the number of times that they swallowed over two five minute periods. They swallowed 10 and 11 times during these two five minute periods, equal to an average rate of 2.1 swallows per minute. By contrast, in two other 5 minute periods when the subject was not infusing the drug, they swallowed 6 times and 5 times, equal to an average rate of 1.1 swallows per minute.
During two five-minute periods the subject recorded the number of times that they swallowed during the infusion. They swallowed 6 times during each of these two five minute periods, equal to an average rate of 1.2 swallows per minute. This is consistent with the previously measured rate of 1.1 swallows per minute observed when not infusing a drug and is half the 2.1 swallows per minute rate the subject observed when infusing LDEE.

mouth of healthy subject [5] = format: in vivo
Description: The infusion was made into the cheek pouch of the lower left jaw, between the gum and the cheek. The pump infused the drug for 8 hours over a total period of 9 hours and 10 minutes.
The solution was infused using a Cane CronoPAR pump. […] The drug infusion was continuous, but was stopped during lunch for a period of 70 minutes. According to the manual, the Cane CronoPAR pump infuses the drug in boluses of 22 μL. […] Lodosyn tablets (25 mg carbidopa) were taken orally twice during the infusion period, for a total dose of 50 mg carbidopa.
The solution was infused in the cheek pouch of the lower right jaw, i.e., between the gum and the cheek.
(§1) The solution was infused using a Cane CronoPAR pump.
The infusion was made into the cheek pouch of the lower right jaw, between the gum and the cheek. The pump infused the drug for 5 hours and 45 minutes over a total period of 7 hours and 30 minutes.
The solution was infused using a Cane CronoPAR pump. […] Pump delivery was stopped during lunch for 1 hour 45 minutes for lunch. According to the manual, the Cane CronoPAR pump infuses the drug in boluses of 22 μL.
The same healthy subject infused into their mouth about 0.69 g LD and 0.07 g carbidopa, in 3.0 mL of 1.2M LD aqueous suspension, of unknown pH. The infusion was made into the cheek pouch of the lower right jaw, between the gum and the cheek. The pump infused the drug for 8 hours and 10 minutes over a total period of 9 hours and 5 minutes.
as §1

| Structure (SMILES) | Approximate Pressure, bars at 37° C. [1] [bars] | further results |
| --- | --- | --- |
| CC=CC [Example 2-butene, 2-butene] | 3.2 |  |
| CCCCF [1-fluorobutane] | 1.3 |  |
| CCCC [butane] | 3.5 |  |
| FC(C(F)(F)F)C(F)(F)F [1,1,1,2,3,3,3 heptafluoropropane] | 4.6 | pressure (absolute) at 37° C. [1]: about 700 kPa; pressure (absolute) at 55° C. [1]: 1,000 kPa; increase of pressure from 37° C. to 55° C. [2]: 42% |
| CC(C)F [2-fluoropropane] | 5 |  |
| CC(C)(C)C [neopentane] | 2.4 |  |
| CCN(CC)C(=O)/C(C#N)=C/c1cc(O)c(O)c([N+](=O)[O-])c1 [Entacapone] |  | plasma half-life [3]: 0.4 to 0.7 h |
| FC(F)(F)CC(F)(F)F [1,1,1,3,3,3 hexafluoropropane] | 4.0 |  |
| C=CCC [Example 1-butene, 1-butene] | 4.2 |  |
| FC1(F)C(F)(F)C(F)(F)C1(F)F [octafluorocyclobutane] | 4.3 |  |
| CC(F)F [1,1-difluoroethane] | 8.4 |  |
| CCOC(=O)[C@@H](N)Cc1ccc(O)c(O)c1 [LDEE, levodopa ethyl ester] |  | stimulation of salivation (mouth of healthy subject [4]; during infusion): stimulated in the subject salivation; average rate of swallowing during infusion (mouth of healthy subject [4]; two five minute periods): 2.1 swallows per minute; condition of the mouth post-infusion (mouth of healthy subject [5]; 24 hours post-infusion): dead, grey, peeling skin; tooth hypersensitivity (mouth of healthy subject [5]; during or after infusion, healthy subject): hypersensitivity at the gum line of one tooth; time post-infusion at which the tissue appears normal (mouth of healthy subject [5]; healthy subject): 4 days; irritation or discomfort in the mouth during the infusion (mouth of healthy subject [5]; infusion into cheek pouch, healthy subject): no irritation or discomfort in the mouth |
| CCC(C)C [isopentane] | 1.4 |  |
| C=CC [propene] | 15.5 |  |
| CCC(C)F (stereo not drawn) [2-fluorobutane] | 1.6 |  |
| CCCF [1-fluoropropane] | 4.1 |  |
| CCOC [methyl ethyl ether] | 3 |  |
| CCOCC [diethyl ether] | 1.1 |  |
| Cc1ccc(C(=O)c2cc(O)c(O)c([N+](=O)[O-])c2)cc1 [Tolcapone] |  | plasma half-life [3]: 2 to 3 h |
| FCC(F)(F)F [1,1,1,2 tetrafluoroethane] | 9.3 | pressure (absolute) at 37° C. [1]: 938 kPa; pressure (absolute) at 55° C. [1]: 1,493 kPa; increase of pressure from 37° C. to 55° C. [2]: 59% |
| CCC [propane] | 12.8 |  |
| FCCF [1,2-difluoroethane] | 1.9 |  |
